# Results published in ChEMBL document CHEMBL3872207, “Aromatic heterocyclic esters of podophyllotoxin exert anti-MDR activity in human leukemia K562/ADR cells via ROS/MAPK signaling pathways” (Eur J Med Chem, 2016).
# Activity calls are given as the source filed them. The rule behind the calls is not given here.
# What was measured:
# [1] = target: MAP kinase p38 (Homo sapiens) (UniProt O15264+Q15759+Q16539+P53778); experiment: Induction of P38 phosphorylation in human K562/ADR cells assessed as ratio of phosphorylated p38 to beta-actin level at 0.1 uM measured after 48 hrs by Western blotting method (reference value: 0.25); type: cell-based
# [2] = system: K562/Adr; experiment: Induction of ERK1/2 phosphorylation in human K562/ADR cells assessed as ratio of phosphorylated ERK1/2 to beta-actin level at 0.1 uM pretreated with MAPK inhibitor U0126 for 1 hr followed by compound addition after 48 hrs by Western blotting method (reference value: 0.22); type: cell-based
# [3] = target: c-Jun N-terminal kinase, JNK (Homo sapiens) (UniProt P45983+P53779+P45984); experiment: Induction of JNK phosphorylation in human K562/ADR cells assessed as ratio of phosphorylated JNK to beta-actin level at 0.1 uM pretreated with MAPK inhibitor U0126 for 1 hr followed by compound addition after 48 hrs by Western blotting method (reference value: 0.46); type: cell-based
# [4] = system: K562/Adr; experiment: Induction of ERK1/2 phosphorylation in human K562/ADR cells assessed as ratio of phosphorylated ERK1/2 to beta-actin level at 0.1 uM pretreated with MAPK inhibitor SP600125 for 1 hr followed by compound addition after 48 hrs by Western blotting method (reference value: 0.22); type: cell-based
# [5] = Downregulation of CDK1 expression in human K562/ADR cells assessed as ratio of CDK1 to beta-actin level at 0.1 uM pretreated with ROS scavenger NAC for 2 hrs followed by compound addition measured after 48 hrs by Western blot analysis (reference value: 0.53); type: functional, cell-based
# [6] = Downregulation of CDK1 expression in human K562/ADR cells assessed as ratio of CDK1 to beta-actin level at 0.1 uM pretreated with MAPK inhibitor U0126 for 1 hr followed by compound addition measured after 48 hrs by Western blot analysis (reference value: 0.53); type: functional, cell-based
# [7] = Downregulation of CDK2 expression in human K562/ADR cells assessed as ratio of CDK2 to beta-actin level at 0.1 uM pretreated with ROS scavenger NAC for 2 hrs followed by compound addition measured after 48 hrs by Western blot analysis (reference value: 0.65); type: functional, cell-based
# [8] = Downregulation of CDK2 expression in human K562/ADR cells assessed as ratio of CDK2 to beta-actin level at 0.1 uM pretreated with MAPK inhibitor SP600125 for 1 hr followed by compound addition measured after 48 hrs by Western blot analysis (reference value: 0.65); type: functional, cell-based
# [9] = Downregulation of CyclinA expression in human K562/ADR cells assessed as ratio of CyclinA to beta-actin level at 0.1 uM measured after 48 hrs by Western blot analysis (reference value: 0.64); type: functional, cell-based
# [10] = Downregulation of CyclinA expression in human K562/ADR cells assessed as ratio of CyclinA to beta-actin level at 0.1 uM pretreated with MAPK inhibitor SB203580 for 1 hr followed by compound addition measured after 48 hrs by Western blot analysis (reference value: 0.64); type: functional, cell-based
# [11] = system: K562/Adr; experiment: Induction of apoptosis in human K562/ADR cells assessed as early apoptotic cells at 0.1 uM after 48 hrs by Annexin V-APC/7-AAD staining based flow cytometry (reference value: 2.74%); type: functional
# [12] = system: K562/Adr; experiment: Induction of apoptosis in human K562/ADR cells assessed as necrotic cells at 0.1 uM pretreated with MAPK inhibitor U0126 for 1 hr followed by compound addition after 48 hrs by Annexin V-APC/7-AAD staining based flow cytometry (reference value: 0.26%); type: functional; design: scale not given: the % may be the effect or the level left
# [13] = system: K562/Adr; experiment: Induction of apoptosis in human K562/ADR cells assessed as late apoptotic cells at 0.1 uM pretreated with MAPK inhibitor SP600125 for 1 hr followed by compound addition after 48 hrs by Annexin V-APC/7-AAD staining based flow cytometry (reference value: 1.69%); type: functional; design: scale not given: the % may be the effect or the level left
# [14] = system: K562/Adr; experiment: Induction of apoptosis in human K562/ADR cells assessed as late apoptotic cells at 0.1 uM pretreated with MAPK inhibitor SB203580 for 1 hr followed by compound addition after 48 hrs by Annexin V-APC/7-AAD staining based flow cytometry (reference value: 1.69%); type: functional; design: scale not given: the % may be the effect or the level left
# [15] = system: K562/Adr; experiment: Induction of apoptosis in human K562/ADR cells assessed as ratio of cleaved caspase-3 to beta-actin level at 0.1 uM measured after 48 hrs by Western blot analysis (reference value: 0.06); type: functional
# [16] = system: K562/Adr; experiment: Induction of apoptosis in human K562/ADR cells assessed as ratio of cleaved PARP to beta-actin level at 0.1 uM pretreated with ROS scavenger NAC for 2 hrs followed by compound addition measured after 48 hrs by Western blot analysis (reference value: 0.04); type: functional
# [17] = system: K562/Adr; experiment: Induction of apoptosis in human K562/ADR cells assessed as ratio of cleaved caspase-9 to beta-actin level at 0.1 uM pretreated with MAPK inhibitor U0126 for 1 hr followed by compound addition measured after 48 hrs by Western blot analysis (reference value: 0.05); type: functional
# [18] = system: K562/Adr; experiment: Induction of apoptosis in human K562/ADR cells assessed as ratio of cleaved caspase-9 to beta-actin level at 0.1 uM pretreated with MAPK inhibitor SP600125 for 1 hr followed by compound addition measured after 48 hrs by Western blot analysis (reference value: 0.05); type: functional
# [19] = system: K562/Adr; experiment: Induction of apoptosis in human K562/ADR cells assessed as ratio of cleaved PARP to beta-actin level at 0.1 uM pretreated with MAPK inhibitor SP600125 for 1 hr followed by compound addition measured after 48 hrs by Western blot analysis (reference value: 0.04); type: functional
# [20] = system: K562/Adr; experiment: Induction of apoptosis in human K562/ADR cells assessed as ratio of cleaved caspase-3 to beta-actin level at 0.1 uM pretreated with MAPK inhibitor SB203580 for 1 hr followed by compound addition measured after 48 hrs by Western blot analysis (reference value: 0.06); type: functional
# [21] = system: K562/Adr; experiment: Induction of apoptosis in human K562/ADR cells assessed as ratio of cleaved caspase-8 to beta-actin level at 0.1 uM pretreated with MAPK inhibitor SB203580 for 1 hr followed by compound addition measured after 48 hrs by Western blot analysis (reference value: 0.07); type: functional
# [22] = system: K562/Adr; experiment: Induction of apoptosis in human K562/ADR cells assessed as ratio of cleaved PARP to beta-actin level at 0.1 uM pretreated with MAPK inhibitor SB203580 for 1 hr followed by compound addition measured after 48 hrs by Western blot analysis (reference value: 0.04); type: functional
# [23] = system: K562/Adr; experiment: Induction of apoptosis in human K562/ADR cells assessed as membrane blebbing at 0.1 uM measured after 24 hrs by Hoechst33342 staining-based inverted fluorescent microscopic analysis; type: functional, cell-based
# [24] = Downregulation of P-gp expression in human K562/ADR cells assessed as ratio of P-gp to beta-actin level at 0.1 uM measured after 48 hrs by Western blot analysis (reference value: 0.63); type: functional, cell-based
smiles,measurement,setting,value
COc1cc([C@@H]2c3cc4c(cc3[C@H](OC(=O)c3ccco3)[C@H]3COC(=O)[C@H]23)OCO4)cc(OC)c1OC,Ratio,[1],0.46
same,Ratio,[2],0.01
same,Ratio,[3],0.35
same,Ratio,[4],0.06
same,Ratio,[5],0.49
same,Ratio,[6],0.26
same,Ratio,[7],0.43
same,Ratio,[8],0.22
same,Ratio,[9],0.15
same,Ratio,[10],0.34
same,Activity,[11],7.92%
same,Activity,[12],3.32%
same,Activity,[13],30.33%
same,Activity,[14],30.87%
same,Ratio,[15],0.68
same,Ratio,[16],0.13
same,Ratio,[17],0.26
same,Ratio,[18],0.47
same,Ratio,[19],0.53
same,Ratio,[20],0.52
same,Ratio,[21],0.51
same,Ratio,[22],0.48
same,Activity,[23],Active
same,Ratio,[24],0.07
